Results from the C3SDB collision cross section collection.
Several values for one entry are separate records, joined by “and”; a condition that tells them apart may be missing. Equal values may be shown once.

Settings: instrument: DT, single field, calibrated with ESI Low Concentration Tuning Mix (Agilent)

Row | collision cross section (N2) ([M-H]-) | collision cross section (N2) ([M+H]+) | collision cross section (N2) ([M+Na]+) [Å²] | collision cross section (N2) ([M+Na-2H]-) | collision cross section (N2) ([M+H2O-H]-) [Å²] | collision cross section (N2) ([M+K]+) [Å²] | Structure (SMILES)
1 | 133.2 Å² | – | – | – | – | – | O=C([O-])CCc1ccccc1O [3-(2-HYDROXYPHENYL)PROPANOATE]
2 | 118 Å² | – | – | – | – | – | O=Cc1cccc(O)c1 [3-HYDROXYBENZALDEHYDE]
3 | – | 130.4 Å² | – | – | – | – | CC1C(=O)Nc2ccccc21 (stereo unspecified) [3-METHYL-2-OXINDOLE]
4 | 127.1 Å² | – | – | – | – | – | CCC(C)C(=O)C(=O)O (stereo unspecified) [3-METHYL-2-OXOVALERATE]
5 | – | 133.7 Å² | – | – | – | – | NC(CS(=O)O)C(=O)O (stereo unspecified) [3-SULFINOALANINE]
6 | – | 126.9 Å² | – | – | – | – | Nc1ccc(C(=O)[O-])cc1 [4-AMINOBENZOATE]
7 | 121 Å² | – | – | – | – | – | Cc1ccc(O)c(O)c1 [4-METHYLCATECHOL]
8 | 134.3 Å² | 133.4 Å² | – | – | – | – | O=C(O)c1ccnc2ccccc12 [4-QUINOLINECARBOXYLATE]
9 | 154.8 Å² | 152.3 Å² and 158.4 Å² | 167.2 | – | – | – | C[C@H]1O[C@@H](n2cnc3c(N)ncnc32)[C@H](O)[C@@H]1O [5'-DEOXYADENOSINE]
10 | 129.9 Å² | 130.3 Å² | – | – | – | – | Cc1cc2nc[nH]c2cc1C [5,6-DIMETHYLBENZIMIDAZOLE]
11 | 146.9 Å² and 151.5 Å² | 154.5 Å² | 152.6 | 149.7 Å² | – | – | NC(Cc1c[nH]c2ccc(O)cc12)C(=O)O (stereo unspecified) [5-HYDROXYTRYPTOPHAN]
12 | 130.9 Å² | – | 140 | 134.4 Å² | – | – | O=C(O)CCCCCC(=O)O [6-CARBOXYHEXANOATE]
13 | 184.3 Å² | 183.3 Å² | 188 | 188.5 Å² | – | – | Nc1ncnc2c1ncn2[C@@H]1O[C@H](COP(=O)(O)O)[C@@H](OP(=O)(O)O)[C@H]1O [ADENOSINE 3',5'-DIPHOSPHATE]
14 | 202.3 Å² and 207.2 Å² | 212.4 Å² | 217.5 | 211.5 Å² | 204.5 | – | Nc1ncnc2c1ncn2C1OC(COP(=O)(O)OP(=O)(O)OCC2OC(O)C(O)C2O)C(O)C1O (stereo unspecified) [ADENOSINE DIPHOSPHATE RIBOSE]
15 | 217.5 Å² | 216.1 Å² | 224.9 | 218.4 Å² | – | – | Nc1ncnc2c1ncn2[C@@H]1O[C@H](COP(=O)(O)OP(=O)(O)O[C@H]2O[C@H](CO)[C@@H](O)[C@H](O)[C@H]2O)[C@@H](O)[C@H]1O [ADP-GLUCOSE]
16 | 119.3 Å² | – | – | – | – | – | C[C@H](O)[C@H](N)C(=O)O [ALLOTHREONINE]
17 | 154.8 Å² | 153.8 Å² | 156.2 | – | – | – | Cn1cncc1C[C@H](NC(=O)CCN)C(=O)O [ANSERINE]
18 | 124.9 Å² | – | 135.8 | – | – | – | OC[C@@H](O)C(O)[C@H](O)CO [ARABITOL]
19 | 136.4 Å² | 136.6 Å² | 148.6 | – | – | – | NC(N)=NCCC[C@H](N)C(=O)O [ARGININE]
20 | – | – | 148.4 | 141.9 Å² | – | – | O=C(O)CCCCCCCC(=O)O [AZELATE]
21 | 223.8 Å² | 227.5 Å² | 222.7 | 230.8 Å² | – | – | NC(=O)c1ccc[n+]([C@@H]2O[C@H](COP(=O)([O-])OP(=O)(O)OC[C@H]3O[C@@H](n4cnc5c(N)ncnc54)[C@H](O)[C@@H]3O)[C@@H](O)[C@H]2O)c1 [BETA-NICOTINAMIDE ADENINE DINUCLEOTIDE]
22 | 152.1 Å² | 150.8 Å² | 154.7 | – | – | – | NCCC(=O)N[C@@H](Cc1cnc[nH]1)C(=O)O [CARNOSINE]
23 | 179.7 Å² | – | 178.7 | – | – | 180.9 | OC[C@H]1O[C@@H](O[C@H]2[C@H](O)[C@@H](O)[C@H](O)O[C@@H]2CO)[C@H](O)[C@@H](O)[C@@H]1O [CELLOBIOSE]
24 | 127.1 Å² | – | 143.1 | – | – | – | O=C(O)CC(O)(CC(=O)O)C(=O)O [CITRATE]
25 | 135.4 Å² | 137.7 Å² | 139.4 | – | – | – | NC(=O)NCCC[C@H](N)C(=O)O [CITRULLINE]
26 | 123 Å² | 140.2 Å² | 148.2 | 131.4 Å² | – | – | NC(CS(=O)(=O)O)C(=O)O (stereo unspecified) [CYSTEATE]

Row | collision cross section (N2) ([M-H]-) | collision cross section (N2) ([M+H]+) | collision cross section (N2) ([M+Na]+) [Å²] | collision cross section (N2) ([M+Na-2H]-) | collision cross section (N2) ([M+H2O-H]-) [Å²] | collision cross section (N2) ([M+K]+) [Å²] | Structure (SMILES)
27 | 164.5 Å² | 163.3 Å² | 167.4 | 165 Å² | 167.1 | 168 | Nc1ccn(C2O[C@H](CO)[C@H]3OP(=O)(O)O[C@@H]23)c(=O)n1 (stereo partly specified) [CYTIDINE 2',3'-CYCLIC PHOSPHATE]
28 | 128.3 Å² | 128.1 Å² | – | – | – | – | NCCC[C@@H](N)C(=O)O [D-ORNITHINE]
29 | 139.4 Å² | – | 150.5 | – | – | – | O=P(O)(O)OC[C@H]1OC(O)[C@H](O)[C@@H]1O (stereo partly drawn) [D-RIBOSE 5-PHOSPHATE]
30 | 202.2 Å² and 202.3 Å² | – | – | – | – | – | C[C@H](CCC(=O)O)[C@H]1CC[C@H]2[C@@H]3CC[C@@H]4C[C@H](O)CC[C@]4(C)[C@H]3C[C@H](O)[C@]12C [DEOXYCHOLATE]
31 | 148.7 Å² | – | 155.2 | – | – | 158.5 | Nc1ccn([C@H]2C[C@H](O)[C@@H](CO)O2)c(=O)n1 [DEOXYCYTIDINE]
32 | 191.4 Å² | – | – | 182.7 Å² | – | – | Nc1nc(=O)c2ncn([C@H]3C[C@H](O)[C@@H](COP(=O)(O)OP(=O)(O)OP(=O)(O)O)O3)c2[nH]1 [DGTP]
33 | 145.6 Å² | 145.2 Å² | 153.6 | – | – | – | CCOC(=O)Cc1c[nH]c2ccccc12 [ETHYL 3-INDOLEACETATE]
34 | 238.7 Å² | 249 Å² | 250.3 | 256.2 Å² | – | – | Cc1cc2nc3c(=O)[nH]c(=O)nc-3n(C[C@H](O)[C@H](O)[C@H](O)COP(=O)(O)OP(=O)(O)OC[C@H]3O[C@@H](n4cnc5c(N)ncnc54)[C@H](O)[C@@H]3O)c2cc1C [FAD]
35 | 139.8 Å² | – | – | – | – | – | COc1cc(/C=C/C(=O)O)ccc1O [FERULATE]
36 | – | – | 141.5 | – | – | – | OCC1(O)OC[C@@H](O)[C@@H](O)[C@@H]1O (stereo partly specified) [FRUCTOSE]
37 | 148.2 Å² | – | 157.7 | – | – | 158.5 | O=P(O)(O)O[C@H]1O[C@H](CO)[C@H](O)[C@H](O)[C@H]1O [GALACTOSE 1-PHOSPHATE]
38 | – | – | 141.9 | – | – | – | OC[C@H]1OC(O)[C@H](O)[C@@H](O)[C@H]1O (stereo partly specified) [GALACTOSE]
39 | 131.3 Å² | – | 145.3 | – | – | – | O=C(O)[C@H]1O[C@H](O)[C@H](O)[C@@H](O)[C@H]1O [GALACTURONATE]
40 | 174.8 Å² | – | – | – | – | – | CCCCC/C=C\C/C=C\C/C=C\CCCCC(=O)[O-] [GAMMA-LINOLENATE]
41 | 167.2 Å² | – | – | 173.8 Å² | – | – | CC(C)=CCC/C(C)=C/COP(=O)(O)OP(=O)(O)O [GERANYL-PP]
42 | 135.7 Å² | 141.8 Å² | 146.5 | – | – | – | N[C@@H](C(=O)O)[C@@H](O)[C@H](O)[C@H](O)CO [GLUCOSAMINATE]
43 | 148.1 Å² | – | – | – | – | – | N[C@@H]1[C@@H](O)[C@H](O)[C@@H](COP(=O)(O)O)O[C@@H]1O [GLUCOSAMINE 6-PHOSPHATE]
44 | 131.7 Å² | – | 150.2 | – | – | – | O=C(O)[C@H]1OC(O)[C@H](O)[C@@H](O)[C@@H]1O (stereo partly specified) [GLUCURONATE]
45 | 121.3 Å² and 121.4 Å² | – | – | 129 Å² and 129.1 Å² | – | – | O=C(O)CCCC(=O)O [GLUTARATE]
46 | 112.6 Å² | – | – | – | – | – | O=C(O)[C@H](O)CO [GLYCERATE]
47 | – | – | 291.4 | – | – | – | CCCCCCCCCCCCCC(=O)OCC(COC(=O)CCCCCCCCCCCCC)OC(=O)CCCCCCCCCCCCC [GLYCERYL TRIMYRISTATE]
48 | – | – | 137.8 | – | – | 136 | Nc1nc(=O)c2[nH]cnc2[nH]1 [GUANINE]
49 | 169.4 Å² | 179.5 Å² | 174.3 | 172.1 Å² | – | – | Nc1nc(=O)c2ncn([C@@H]3O[C@H](COP(=O)(O)O)[C@@H](O)[C@H]3O)c2[nH]1 [GUANOSINE MONOPHOSPHATE]
50 | 172.9 Å² | – | – | – | – | – | CCCCCCCCCCCCCCCCC(=O)[O-] [HEPTADECANOATE]
51 | 132.4 Å² | – | – | – | – | – | O=C(O)Cc1cc(O)ccc1O [HOMOGENTISATE]

Row | Structure (SMILES) | collision cross section (N2) ([M-H]-) | collision cross section (N2) ([M+H]+) | collision cross section (N2) ([M+Na]+) [Å²] | collision cross section (N2) ([M+Na-2H]-) | collision cross section (N2) ([M+H2O-H]-) [Å²] | collision cross section (N2) ([M+K]+) [Å²]
52 | O=C(O)CCCCCCCCCO [10-HYDROXYDECANOATE] | 144.3 Å² | – | 151 | – | – | –
53 | NCCP(=O)(O)O [(2-AMINOETHYL)PHOSPHONATE] | 120 Å² | 129 Å² | 136.5 | – | – | –
